From patent US9682995B2, “Amino-substituted isothiazoles” (BAYER PHARMA AKTIENGESELLSCHAFT, priority 2013, dated 2017)

What was measured:
human kinase Mps-1 = human kinase Mps-1 (Homo sapiens (Human), UniProt P33981); assay: Mps-1 kinase assay (TR-FRET); format: biochemical; conditions: 10 μM ATP; read-out: Mps1 avg (IC50 [mol/l])
Description: The human kinase Mps-1 phosphorylates a biotinylated substrate peptide. Detection of the phosphorylated product is achieved by time-resolved fluorescence resonance energy transfer (TR-FRET) from Europium-labelled anti-phospho-Serine/Threonine antibody as donor to streptavidin labelled with cross-linked allophycocyanin (SA-XLent) as acceptor. Compounds are tested for their inhibition of the kinase activity.
N-terminally GST-tagged human full length recombinant Mps-1 kinase (purchased from Invitrogen, Karslruhe, Germany, cat. no PV4071) was used. As substrate for the kinase reaction a biotinylated peptide of the amino-acid sequence biotin-Ahx-PWDPDDADITEILG (C-terminus in amide form, purchased from Biosyntan GmbH, Berlin) was used.
For the assay 50 nl of a 100-fold concentrated solution of the test compound in DMSO was pipetted into a black low volume 384 well microtiter plate (Greiner Bio-One, Frickenhausen, Germany), 2 μl of a solution of Mps-1 in assay buffer [0.1 mM sodium-ortho-vanadate, 10 mM MgCl2, 2 mM DTT, 25 mM Hepes pH 7.7, 0.05% BSA (w/v), 0.001% Pluronic F-127] were added and the mixture was incubated for 15 min at 22° C. to allow pre-binding of the test compounds to Mps-1 before the start of the kinase reaction. Then the kinase reaction was started by the addition of 3 μl of a solution of 16.7 μM adenosine-tri-phosphate (ATP, 16.7 μM=>final conc. in the 5 μl assay volume is 10 μM) and peptide substrate (1.67 μM=>final conc. in the 5 μl assay volume is 1 μM) in assay buffer and the resulting mixture was incubated for a reaction time of 60 min at 22° C. The concentration of Mps-1 in the assay was adjusted to the activity of the enzyme lot and was chosen appropriate to have the assay in the linear range, typical enzyme concentrations were in the range of about 0.5 nM (final conc. in the 5 μl assay volume). The reaction was stopped by the addition of 5 μl of a solution of TR-FRET detection reagents (100 mM Hepes pH 7.4, 0.1% BSA, 40 mM EDTA, 140 nM Streptavidin-XLent [#61GSTXLB, Fa. Cis Biointernational, Marcoule, France], 1.5 nM anti-phospho(Ser/Thr)-Europium-antibody [#AD0180, PerkinElmer LAS, Rodgau-Jugesheim, Germany]. Instead of the 1.5 nM anti-phospho(Ser/Thr)-Europium-antibody a mixture of 2 nM unlabeled anti-phospho ser/thr-pro antibody MPM-2 [Millipore cat. #05-368] and 1 nM LANCE EU-W1024 labeled anti-mouse IgG antibody [Perkin-Elmer, product no. AD0077] can be used).
The resulting mixture was incubated 1 h at 22° C. to allow the binding of the phosphorylated peptide to the anti-phospho(Ser/Thr)-Europium-antibody. Subsequently the amount of phosphorylated substrate was evaluated by measurement of the resonance energy transfer from the Europium-labelled anti-phospho(Ser/Thr) antibody to the Streptavidin-XLent. Therefore, the fluorescence emissions at 620 nm and 665 nm after excitation at 350 nm was measured in a Viewlux TR-FRET reader (PerkinElmer LAS, Rodgau-Jugesheim, Germany). The “blank-corrected normalized ratio” (a Viewlux specific readout, similar to the traditional ratio of the emissions at 665 nm and at 622 nm, in which blank and Eu-donor crosstalk are subtracted from the 665 nm signal before the ratio is calculated) was taken as the measure for the amount of phosphorylated substrate. The data were normalised (enzyme reaction without inhibitor=0% inhibition, all other assay components but no enzyme=100% inhibition).

[1] = system: spindle assembly checkpoint; assay: SAC-Formation - Nocodazole-Induced Assay; format: cell-based; conditions: Homo sapiens; HeLa cells, nocodazole 0.1 μg/ml, 24 h, phosphorylated histone H3 on serine 10
Excerpt: The spindle assembly checkpoint assures the proper segregation of chromosomes during mitosis. Upon entry into mitosis, chromosomes begin to condensate which is accompanied by the phosphorylation of histone H3 on serine 10. Dephosphorylation of histone H3 on serine 10 begins in anaphase and ends at early telophase. Accordingly, phosphorylation of histone H3 on serine 10 can be utilized as a marker of cells in mitosis. Nocodazole is a microtubule destabilizing substance. Paclitaxel is a microtubule stabilizing compound. Thus, nocodazole as well as paclitaxel interfere with microtubule dynamics and mobilize the spindle assembly checkpoint. […] The mitotic breakthrough can be detected by the decrease of cells with phosphorylation of histone H3 on serine 10. This decline is used as a marker to determine the capability of compounds of the present invention to induce a mitotic breakthrough. The typical morphological alteration of nuclei with a prematurely completed mitosis after SAC-inhibition can be monitored via image analysis routines supporting those findings.
The nocodazole and paclitaxel variations were used to focus on compounds that are capable of inhibiting a SAC induced by both microtubule destabilization as well as microtubule stabilization. When SAC inducing agents and compounds are given simultaneously, inhibitors that effectively block the SAC during formation or abrogation are identified. When cells are incubated with a SAC inducing agent and the SAC interfering compound is given after a defined time, inhibitors are identified that effectively block SAC abrogation.
Cultivated cells of the human cervical tumor cell line HeLa (ATCC CCL-2) were plated at a density of 1000 cells/well in a 1536-well microtiter plate in 2 μl PAA Ham's F12 Medium supplemented with 1% (v/v) glutamine, 1% (v/v) penicillin, 1% (v/v) streptomycin and 10% (v/v) fetal calf serum. After incubation overnight at 37° C., 10 μl/well nocodazole at a final concentration of 0.1 μg/ml were added to cells. Test compounds solubilized in dimethyl sulfoxide (DMSO) were added at various concentrations (0 μM, as well as in the range of 0.005 μM-20 μM; the final concentration of the solvent DMSO was 0.5% (v/v)). Cells were incubated for 24 h at 37° C. in the presence of test compounds in combination with nocodazole. Thereafter, cells were fixed in 4% (v/v) paraformaldehyde in phosphate buffered saline (PBS) at 4° C. overnight then permeabilized in 0.1% (v/v) Triton X™ 100 in PBS at room temperature for 20 min and blocked in 0.5% (v/v) bovine serum albumin (BSA) in PBS at room temperature for 15 min. After washing with PBS, 5 μl/well antibody solution (anti-phospho-histone H3 clone 3H10, FITC; Millipore, Cat #16-222; 1:1000 dilution) was added to cells, which were incubated for 2 h at room temperature. Afterwards, cells were washed with PBS and 5 μl/well solution of HOECHST 33342 dye (5 μg/ml) was added to cells and cells were incubated 15 min at room temperature in the dark. Cells were washed twice with PBS then covered with PBS and stored at 4° C. until analysis. Images were acquired with a PERKIN ELMER OPERA™ High-Content Analysis reader. Images were analyzed with image analysis software MetaXpress™ from Molecular devices utilizing the Mitotic Index application module. In this assay both labels HOECHST 33342 and phosphorylated Histone H3 on serine 10 were measured. HOECHST 33342 labels the DNA and is used to count the cell number. The staining of phosphorylated Histone H3 on serine 10 determines the number of mitotic cells. […] Otherwise cells were arrested at G2/M phase of the cell cycle progression. The raw assay data were further analyzed by four-parametric hill equation using Genedata's Assay Analyzer and Condoseo software.

Chain of human kinase Mps-1 (P33981 whole entry): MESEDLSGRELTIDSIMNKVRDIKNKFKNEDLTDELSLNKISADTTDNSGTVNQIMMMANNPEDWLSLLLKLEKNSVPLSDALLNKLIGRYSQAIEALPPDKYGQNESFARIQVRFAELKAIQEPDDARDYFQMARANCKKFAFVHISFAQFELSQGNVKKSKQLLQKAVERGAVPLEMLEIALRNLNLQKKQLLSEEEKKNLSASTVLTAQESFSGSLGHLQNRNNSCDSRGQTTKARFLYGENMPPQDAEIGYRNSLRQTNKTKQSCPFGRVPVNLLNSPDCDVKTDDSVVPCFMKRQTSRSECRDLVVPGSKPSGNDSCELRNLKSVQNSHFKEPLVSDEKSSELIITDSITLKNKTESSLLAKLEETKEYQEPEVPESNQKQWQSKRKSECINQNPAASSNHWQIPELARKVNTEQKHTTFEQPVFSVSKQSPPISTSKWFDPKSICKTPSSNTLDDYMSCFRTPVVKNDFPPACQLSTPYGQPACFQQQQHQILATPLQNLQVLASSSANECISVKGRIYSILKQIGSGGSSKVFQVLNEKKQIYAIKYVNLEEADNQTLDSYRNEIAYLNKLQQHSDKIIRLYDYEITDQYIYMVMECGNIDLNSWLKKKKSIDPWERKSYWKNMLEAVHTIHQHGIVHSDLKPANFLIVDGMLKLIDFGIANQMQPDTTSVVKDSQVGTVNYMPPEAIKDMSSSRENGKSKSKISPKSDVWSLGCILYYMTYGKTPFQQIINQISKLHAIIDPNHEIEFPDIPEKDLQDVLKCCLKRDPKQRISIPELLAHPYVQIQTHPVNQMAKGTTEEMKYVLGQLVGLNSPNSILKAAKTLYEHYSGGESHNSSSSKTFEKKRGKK

| Compound | IC50 (human kinase Mps-1) | IC50 [1] |
| --- | --- | --- |
| Cc1nsc(Nc2cnc(C(=O)N(C)C)cn2)c1C(=O)Nc1ccc(F)c(F)c1 [Example 109, 5-({4-[(3,4-Difluorophenyl)carbamoyl]-3-methyl-1,2-thiazol-5-yl}amino)-N,N-dimethylpyrazine-2-carboxamide] | > 20000 nM | 1100 nM |
| CCc1ccccc1NC(=O)c1c(C)nsc1Nc1ncccc1C#N [Example 8, 5-[(3-Cyanopyridin-2-yl)amino]-N-(2-ethylphenyl)-3-methyl-1,2-thiazole-4-carboxamide] | > 20000 nM | 4100 nM |
| CCc1ccccc1NC(=O)c1c(C)nsc1Nc1cnccn1 [Example 1, N-(2-Ethylphenyl)-3-methyl-5-(pyrazin-2-ylamino)-1,2-thiazole-4-carboxamide] | > 20000 nM | 1800 nM |
| CCNC(=O)c1csc(Nc2snc(C)c2C(=O)Nc2ccc(F)c(F)c2)n1 [Example 99, N-(3,4-Difluorophenyl)-5-{[4-(ethylcarbamoyl)-1,3-thiazol-2-yl]amino}-3-methyl-1,2-thiazole-4-carboxamide] | > 20000 nM | 20000 nM |
| Cc1nsc(Nc2ccc(C#N)cn2)c1C(=O)Nc1ccc(Cl)c(F)c1 [Example 52, N-(4-Chloro-3-fluorophenyl)-5-[(5-cyanopyridin-2-yl)amino]-3-methyl-1,2-thiazole-4-carboxamide] | > 20000 nM | 34 nM |
| Cc1nsc(Nc2cc(C#N)ccn2)c1C(=O)Nc1ccc(Cl)c(F)c1 [Example 54, N-(4-Chloro-3-fluorophenyl)-5-[(4-cyanopyridin-2-yl)amino]-3-methyl-1,2-thiazole-4-carboxamide] | > 20000 nM | 19 nM |
| CCc1ccccc1NC(=O)c1c(C)nsc1Nc1nccc(OC)n1 [Example 16, N-(2-Ethylphenyl)-5-[(4-methoxypyrimidin-2-yl)amino]-3-methyl-1,2-thiazole-4-carboxamide] | > 20000 nM | 9800 nM |
| COc1ccc(NC(=O)c2c(C)nsc2Nc2cnc3c(F)c(F)ccc3n2)cn1 [Example 43, 5-[(5,6-Difluoroquinoxalin-2-yl)amino]-N-(6-methoxypyridin-3-yl)-3-methyl-1,2-thiazole-4-carboxamide] | > 20000 nM | 34 nM |
| COc1ccc(NC(=O)c2c(C)nsc2Nc2cnc3cc(Cl)ccc3n2)cn1 [Example 23, 5-[(6-Chloroquinoxalin-2-yl)amino]-N-(6-methoxypyridin-3-yl)-3-methyl-1,2-thiazole-4-carboxamide] | > 20000 nM | 280 nM |
| CCc1ccccc1NC(=O)c1c(C)nsc1Nc1cc(NC)ncn1 [Example 15, N-(2-Ethylphenyl)-3-methyl-5-{[6-(methylamino)pyrimidin-4-yl]amino}-1,2-thiazole-4-carboxamide] | > 20000 nM | 16000 nM |
| CCc1ccccc1NC(=O)c1c(C)nsc1Nc1nc2ccccc2o1 [Example 11, 5-(1,3-Benzoxazol-2-ylamino)-N-(2-ethylphenyl)-3-methyl-1,2-thiazole-4-carboxamide] | > 20000 nM | 1800 nM |
| Cc1nsc(Nc2cc(C#N)ccn2)c1C(=O)Nc1ccc(Oc2ccc(F)cc2F)nc1 [Example 114, 5-[(4-Cyanopyridin-2-yl)amino]-N-[6-(2,4-difluorophenoxy)pyridin-3-yl]-3-methyl-1,2-thiazole-4-carboxamide] | – | 31 nM |
| Cc1nsc(Nc2cc(C#N)ccn2)c1C(=O)Nc1ccc(F)c(F)c1 [Example 27, 5-[(4-Cyanopyridin-2-yl)amino]-N-(3,4-difluorophenyl)-3-methyl-1,2-thiazole-4-carboxamide] | > 20000 nM | 110 nM |
| CCc1ccccc1NC(=O)c1c(C)nsc1Nc1cnc2ccc(Cl)cc2n1 [Example 41, 5-[(7-Chloroquinoxalin-2-yl)amino]-N-(2-ethylphenyl)-3-methyl-1,2-thiazole-4-carboxamide] | > 20000 nM | 160 nM |
| Cc1nsc(Nc2cnc3ccccc3n2)c1C(=O)Nc1ccc(OC2CCCCC2)nc1 [Example 115, N-[6-(Cyclohexyloxy)pyridin-3-yl]-3-methyl-5-(quinoxalin-2-ylamino)-1,2-thiazole-4-carboxamide] | > 20000 nM | 90 nM |
| COc1ncc(NC(=O)c2c(C)nsc2Nc2ccc(C#N)cn2)cc1C [Example 120, 5-[(5-Cyanopyridin-2-yl)amino]-N-(6-methoxy-5-methylpyridin-3-yl)-3-methyl-1,2-thiazole-4-carboxamide] | > 20000 nM | 270 nM |
| Cc1nsc(Nc2nc3c(C(F)(F)F)cccc3s2)c1C(=O)Nc1ccc(F)c(F)c1 [Example 51, N-(3,4-Difluorophenyl)-3-methyl-5-{[4-(trifluoromethyl)-1,3-benzothiazol-2-yl]-amino}-1,2-thiazole-4-carboxamide] | > 20000 nM | 39 nM |
| COc1ccc(NC(=O)c2c(C)nsc2Nc2cccc(C#N)n2)cn1 [Example 37, 5-[(6-Cyanopyridin-2-yl)amino]-N-(6-methoxypyridin-3-yl)-3-methyl-1,2-thiazole-4-carboxamide] | > 20000 nM | 2400 nM |
| Cc1nsc(Nc2cc(C#N)ccn2)c1C(=O)Nc1ccc(Oc2ccccc2)nc1 [Example 111, 5-[(4-Cyanopyridin-2-yl)amino]-3-methyl-N-(6-phenoxypyridin-3-yl)-1,2-thiazole-4-carboxamide] | – | 200 nM |
